Source: patent publication US3937838A, “Orally active bronchospasmolytic compounds and their preparation” (priority 1966, dated 1976)
Entries after “also recorded” stand apart in the source; their conditions may differ. Read-outs that look alike come from different tables or passages of the source.

Experiments:
[1] = system: histamine induced bronchoconstriction; experiment: Bronchospasmolytic effect in vivo, Konzett and Rossler (Example 5b); set-up: species or system guinea pig; details: intravenous; histamine-induced bronchospasm; FIG. 1
Method: Orciprenaline and terbutaline were also tested in vivo according to the method described by Konzett and Rossler [Arch. Exp. Path. Pharmak. 195 (1940) page 71]. In the method of Konzett and Rossler, the animal is ventilated with a constant volume of air. When a certain pressure has been reached in the lung, the volume of air which is in excess of the pulmonary capacity will escape through the valve. This surplus of air is recorded. The testing compounds in the Konzett and Rossler method, bronchial contraction is provoked by administration of histamine. The histamine reduced the capacity of the airways, and the measured overflow increases. In order to see to what extent a test compound counteracts the histamine-induced bronchospasm, the animal is first given an injection of the test compound which is followed 3 minutes later by exposure to histamine.

isolated rabbit heart = experiment: Effect on isolated heart, Langendorff preparation (Example 5d)
Method: The effect of the compound of the present invention was also studied on isolated rabbit heart (Langendorff preparation) the method used as described by Anden et al. (Acta Pharmacol. et Toxicol., 21 (1964) page 247). In this procedure, the isolated heart is mounted in a Krebs solution and the test compound is injected into it. Measurements are continuously recorded of the rate and force of contraction.
The tests using epinephrine establish a standard of comparison to evaluate subsequent test compounds in the same preparation.

[2] = system: sphincter of Oddi (choledochoduodenal sphincter); experiment: Effect on sphincter of Oddi (Example 5e); assay type: in vivo, cat
Method: The effect of terbutaline on the choledochoduodenal sphincter of young, healthy cats was studied. Young animals weighing at least 2.0 kg were used. After being deprived of food but not water for 24 hours, they were anesthetized with pentobarbitol (40 mg/kg i.p.). The terminal portion of a common bile duct was isolated and cannulated toward the duodenum. The hepatic part of the bile duct was drained to prevent distention. The pressure was continuously recorded by the open tip technique. Details of the experimental set up have been published by Liedberg and Halabi [Acta. Chir. Scand. 136 (1970) page 208.] Heart rate was recorded on all experiments and blood pressure by arterial cannulation in some.
Referring to the upper curve of FIGS. 7 and 8, the heart rate is continuously recorded. Concurrent records are made in the middle curve and lower curve of the pressures measured respectively in the common bile duct and in the lower duodenum.
As a control in this test, the animal was also treated with 0.5 international units per kg of cholecystokinin (CCK).
In a second test of the effect of terbutaline and isoprenaline on the sphincter (see FIG. 8), the duodenal motility was measured without being affected by CCK.

bronchial asthma = experiment: Clinical study in asthmatic patients (Example 6); assay type: in vivo, human
Method: All the patients were hospitalized for severe bronchial asthma. Before the patients were selected for the trial, spirometry was performed before and after isoprenaline inhalations to make sure that their obstruction was at least partly reversible by bronchodilating drugs. The tests were performed when the patients were in a relatively steady state of moderate asthmatic discomfort. Every morning during the trial control measurements of forced expiratory volume in one second (FEV1.0) were made. These values had to be less than 70% of the predicted normal value taking in consideration sex, age and heights. All the patients were under treatment of different drugs for their asthma. Other bronchodilating drugs were withdrawn at least 6 hours before the start of the measurements. Most of the patients were treated with steroids, antibiotics and expectorants before the start of the trial. This regimen was continued unchanged during the trial period.
Twenty-four took part in the study, 10 male and 14 female. Average age was 51 years (range 15-71 years), mean body weight 64 kg (range 44-88 kg.) and height 166 cm (range 150-187 cm).
The trial was performed as a double blind study during three consecutive days with the patients serving as their own control. […] The order of treatment was randomized according to the principle of Latin squares.
Lung function tests were made immediately before the administration of the tablets and after 1, 2, 3, 5 and 7 hours. FEV1.0 was measured using a Vitalograph spirometer. The highest value of three measurements on each occasion was used in the calculations. All the patients had been trained to perform the tests the day before the start of the trial. After 3 and 7 hours, the patients were questioned for side effects. The same, specially trained, nurse assisted throughout the whole investigation.
The "Student's" t-test was used for statistical evaluation of the results. The degree of significance for the differences is given as almost significant (p<0.05^x) significant (p<0.01^xx) and highly significant (p<0.001^xxx).

guinea pig trachea = experiment: Bronchospasmolytic effect in vitro (Example 13); details: based on ED50-values; weight basis; Table 7
Method: The trachea from a guinea pig was dissected out and spirally cut. It was mounted in a water-jacketed bath (37°C.) in Krebs solution and aerated with oxygen (95%) and carbon dioxide (5%). Pilocarpine (2 μg/ml) was added. The load was adjusted to about 2 g and relaxations in the trachea were recorded by means of a Grass force displacement transducer and a Grass polygraph model 5 (see Example 5 above). The cumulative method was used (-)-Epinephrine was used as reference. The comparisons presented in Table 7 are based on ED50 -values.

[3] = system: bronchoconstriction by histamine aerosol; experiment: Protecting effect against histamine aerosol in guinea pigs (Example 15); assay type: in vivo, guinea pig; details: Cavia porcellus, read-out: ED50 (protecting 50 percent of the animals for more than 4 minutes)
Excerpt: Male guinea pigs (200--300 g) were used. Bronchoconstriction was produced by letting the animals inhale a histamine aerosol.

[4] = Toxicity study in mice (Example 18); assay type: in vivo; details: mouse, in vivo, mice (NMRI, male), 24 hours, read-out: LD 50 + Standard error
Method: The toxicity was studied in mice (NMRI, male, 18-28 g) 24 hours after i.v. and oral administration. The animals were observed during five days. No further deaths occurred.

[5] = system: bronchial muscle and heart
Excerpt: (§1) [This procedure is more fully described below in Example 5 (b)].

[6] = system: cardioaccelerating effect; details: in vivo
Excerpt: as §1

[7] = anesthetized cats, concurrent with sphincter effect

## CC(C)(C)NCC(O)c1cc(O)cc(O)c1 (racemic) [terbutaline, 1-(3',5'-dihydroxyphenyl)-2-(t-butylamino)-ethanol]
[1]
  bronchospasmolytic effect relative to orciprenaline: twice
Isolated rabbit heart; cardiac/cardioaccelerating effect, FIGS. 5, 6
  effect on isolated heart relative to epinephrine: about one-fiftieth
Isolated rabbit heart; injection, FIG. 5
  effect on rate and force of isolated heart: weak
[2]; 5-10 μg/kg
  number of cats responding (the other five of 25): five
[2]; [7]
  duodenal pressure / motility: only slightly affects; also recorded: minimum effects
  heart rate: only slightly affects the heart rate; also recorded: minimum effects on heart rate
[2]; anesthetized cats, i.v., 1 μg/kg terbutaline in FIG. 7, FIG. 8
  common bile duct pressure / sphincter relaxation: substantially reduces the common bile duct pressures; also recorded: relaxed the sphincter
[2]; dose range 0.5-4.0 μg/kg
  number of cats responding (of 25): 20 cats
Bronchial asthma; 5 mg terbutaline versus 20 mg orciprenaline, oral
  maximum effect and duration of effect versus orciprenaline: superior to 20 mg of orciprenaline
Bronchial asthma; oral
  circulatory effects: negligible circulatory effects
Bronchial asthma; oral single dose
  time of maximal response (FEV1.0): 3 h
Bronchial asthma; oral, presumably
  duration of action: > 5 h
Bronchial asthma; oral, terbutaline 5.0 mg, orciprenaline 20 mg, FIG. 9
  increase of FEV1.0: clearcut increase of the spirometric values; also recorded: significantly greater than that of orciprenaline; also recorded: effective in relaxing bronchial obstruction in asthmatic patients
Guinea pig trachea
  bronchospasmolytic effect x (-)epinephrine: 0.8 ± 0.1
[3]; 0.5 h, oral, 30 minutes before histamine
  ED50: 0.4 mg/kg
[3]; ip, 0.25 h, i.p., 15 minutes before histamine
  ED50: 0.15 mg/kg
[4]; iv
  LD50 at 24 h: 52 ± 3 mg/kg
[4]; po
  LD50 at 24 h: 3200 mg/kg
[5]
  duration of effect versus orciprenaline: longer than that of orciprenaline
[5]; in vitro and in vivo
  bronchodilator potency versus orciprenaline: more potent bronchodilator
[6]
  cardioaccelerating effect: weak cardioaccelerating effect
